{
  "source": "ChEMBL document CHEMBL1131682",
  "about": "“New photoaffinity analogs of paclitaxel” (1999)",
  "assay_type_in_all_cases": "functional",
  "key": {"A121": {"test_system": "A121", "test": "Inhibition of growth of human ovarian tumor cell line (A121) after 72 hr of drug exposure"}, "MCF7": {"test_system": "MCF7", "test": "Inhibition of the growth of human breast tumor cell line (MCF-7) after 72 hr of drug exposure"}, "HT-29": {"test_system": "HT-29", "test": "Inhibition of growth of human colon tumor cell line (HT-29) after 72 hr of drug exposure"}, "A549": {"test_system": "A549", "test": "Inhibition of growth of human NSCL non small cell lung carcinoma cell line ([…]) after 72 hr of drug exposure"}, "MCF7R": {"test_system": "MCF7R", "test": "Inhibition the growth of doxorubicin resistant human breast tumor cell line (MCF-7-R) after 72 hr of drug exposure"}},
  "data": [
    {"smiles": "CC(=O)O[C@H]1C(=O)[C@@]2(C)[C@H]([C@H](OC(=O)c3ccccc3)[C@]3(O)C[C@H](OC(=O)[C@H](O)[C@@H](NC(=O)c4ccccc4)c4ccccc4)C(C)=C1C3(C)C)[C@]1(OC(C)=O)CO[C@@H]1C[C@@H]2O", "note": "[PACLITAXEL]", "values": [
      {"measurement": "Inhibition", "setting": "A121", "value": 6.1, "unit": "%"},
      {"measurement": "Inhibition", "setting": "MCF7", "value": 1.7, "unit": "%"},
      {"measurement": "Inhibition", "setting": "HT-29", "value": 3.2, "unit": "%"},
      {"measurement": "Inhibition", "setting": "A549", "value": 3.6, "unit": "%"},
      {"measurement": "IC50", "setting": "MCF7R", "value": 300, "unit": "nM"}
    ]},
    {"smiles": "CC(=O)O[C@@]12CO[C@@H]1C[C@H](O)[C@@]1(C)C(=O)[C@H](OC(=O)CCc3cccc(C(=O)c4ccccc4)c3)C3=C(C)C(OC(=O)[C@H](O)[C@@H](NC(=O)c4ccccc4)c4ccccc4)C[C@@](O)([C@@H](OC(=O)c4ccccc4)C12)C3(C)C", "note": "(stereo not given in full)", "values": [
      {"measurement": "Inhibition", "setting": "A121", "value": 32.8, "unit": "%"},
      {"measurement": "Inhibition", "setting": "MCF7", "value": 20.7, "unit": "%"},
      {"measurement": "Inhibition", "setting": "HT-29", "value": 40.8, "unit": "%"},
      {"measurement": "Inhibition", "setting": "A549", "value": 40.8, "unit": "%"},
      {"measurement": "IC50", "setting": "MCF7R", "value": 1540, "unit": "nM"}
    ]},
    {"smiles": "CC(=O)O[C@H]1C(=O)[C@@]2(C)C([C@H](OC(=O)c3ccccc3)[C@]3(O)CC(OC(=O)[C@H](O)[C@@H](NC(=O)c4ccccc4)c4ccccc4)C(C)=C1C3(C)C)[C@]1(OC(C)=O)CO[C@@H]1C[C@@H]2OC(=O)CCc1cccc(C(=O)c2ccccc2)c1", "note": "(stereo not given in full)", "values": [
      {"measurement": "Inhibition", "setting": "A121", "value": 8.8, "unit": "%"},
      {"measurement": "Inhibition", "setting": "MCF7", "value": 2.4, "unit": "%"},
      {"measurement": "Inhibition", "setting": "HT-29", "value": 6.5, "unit": "%"},
      {"measurement": "Inhibition", "setting": "A549", "value": 13, "unit": "%"},
      {"measurement": "IC50", "setting": "MCF7R", "value": 450, "unit": "nM"}
    ]}
  ]
}
